Laboratory results from patent publication US9944641B2, “Isoquinolinone derivatives useful in the treatment of cancer” (PIERRE FABRE MEDICAMENT, priority 2014, dated 2018).

Experiments:
Type in all cases: binding
FLT3-ITD = target: T1, FLT3-ITD (Homo sapiens, UniProt P36888); assay: Lanthascreen TR-FRET enzymatic assay, FLT3-ITD; settings: 1 hour at 25° C., 1% DMSO, read-out: Enzymology (IC50) FLT3-ITD
T1 construct: fused on or other part: GST tag (detected with the Europium-tagged anti-GST antibody)
T1 sequence (P36888 1-993): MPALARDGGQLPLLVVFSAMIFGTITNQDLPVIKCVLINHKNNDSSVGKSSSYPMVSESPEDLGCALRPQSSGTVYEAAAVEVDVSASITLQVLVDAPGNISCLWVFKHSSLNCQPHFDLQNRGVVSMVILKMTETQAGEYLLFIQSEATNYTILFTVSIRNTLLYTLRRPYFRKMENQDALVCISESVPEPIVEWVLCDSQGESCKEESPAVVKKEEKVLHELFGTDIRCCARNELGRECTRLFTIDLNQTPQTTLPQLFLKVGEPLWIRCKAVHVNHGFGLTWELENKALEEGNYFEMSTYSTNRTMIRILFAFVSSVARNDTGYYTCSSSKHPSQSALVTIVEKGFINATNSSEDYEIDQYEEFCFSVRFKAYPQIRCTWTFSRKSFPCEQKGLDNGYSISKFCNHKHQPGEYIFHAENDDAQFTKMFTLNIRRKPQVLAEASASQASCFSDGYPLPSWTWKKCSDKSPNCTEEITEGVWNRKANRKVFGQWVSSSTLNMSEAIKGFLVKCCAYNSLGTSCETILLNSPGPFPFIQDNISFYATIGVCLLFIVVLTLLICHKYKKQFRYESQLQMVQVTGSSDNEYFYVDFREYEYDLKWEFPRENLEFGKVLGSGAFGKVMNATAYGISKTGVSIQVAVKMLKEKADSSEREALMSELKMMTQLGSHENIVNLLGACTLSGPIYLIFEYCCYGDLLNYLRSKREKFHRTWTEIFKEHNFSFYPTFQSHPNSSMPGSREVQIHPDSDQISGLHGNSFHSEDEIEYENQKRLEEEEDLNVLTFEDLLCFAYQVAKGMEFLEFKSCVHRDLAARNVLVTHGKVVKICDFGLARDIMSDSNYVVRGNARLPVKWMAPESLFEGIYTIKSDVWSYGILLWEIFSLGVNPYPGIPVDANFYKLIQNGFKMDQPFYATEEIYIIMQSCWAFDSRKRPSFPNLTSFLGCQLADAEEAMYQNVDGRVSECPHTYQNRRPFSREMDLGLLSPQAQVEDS
Experimental: (§1) Recombinant FLT3 (#PV3182), JAK2 (#PV4210) and JAK3 (#PV3855) enzymes were purchased from Life Technologies. FLT3-ITD (#0778-0000-1) and FLT3^D835Y (#14-610) were respectively purchased from Proquinase and Merck Millipore.
(§2) The assays were conducted in 384-well plates based on Life Technologies Lanthascreen® TR-FRET methodologies.
(§3) FLT3-ITD or FLT3^D835Y assays: 15 nM of FLT3-ITD or FLT3^D835Y, 3 nM of the 236 kinase tracker (Life Technologies #PV5592) and 6 nM of the Europium-tagged anti-GST Lanthascreen® antibody are mixed into 15 μL total volume reaction mixture.
(§4) IC50s were determined from a 8-point dose-response curve spanning a >1000 fold concentration range using a 10 mM compound solution stock into pure DMSO (Sigma #D8418). The overall DMSO concentrations of tested solutions were 1%.
(§5) IC50s were generated with the software Prism (Graphpad).

FLT3 D835Y = target: T2, FLT3 D835Y (Homo sapiens, UniProt P36888, D835Y); assay: Lanthascreen TR-FRET enzymatic assay, FLT3 D835Y; settings: 1 hour at 25° C., 1% DMSO, read-out: Enzymology (IC50) FLT3 D835Y
T2 construct: purchased Merck Millipore 14-610
T2 sequence (P36888 27-993 D835Y): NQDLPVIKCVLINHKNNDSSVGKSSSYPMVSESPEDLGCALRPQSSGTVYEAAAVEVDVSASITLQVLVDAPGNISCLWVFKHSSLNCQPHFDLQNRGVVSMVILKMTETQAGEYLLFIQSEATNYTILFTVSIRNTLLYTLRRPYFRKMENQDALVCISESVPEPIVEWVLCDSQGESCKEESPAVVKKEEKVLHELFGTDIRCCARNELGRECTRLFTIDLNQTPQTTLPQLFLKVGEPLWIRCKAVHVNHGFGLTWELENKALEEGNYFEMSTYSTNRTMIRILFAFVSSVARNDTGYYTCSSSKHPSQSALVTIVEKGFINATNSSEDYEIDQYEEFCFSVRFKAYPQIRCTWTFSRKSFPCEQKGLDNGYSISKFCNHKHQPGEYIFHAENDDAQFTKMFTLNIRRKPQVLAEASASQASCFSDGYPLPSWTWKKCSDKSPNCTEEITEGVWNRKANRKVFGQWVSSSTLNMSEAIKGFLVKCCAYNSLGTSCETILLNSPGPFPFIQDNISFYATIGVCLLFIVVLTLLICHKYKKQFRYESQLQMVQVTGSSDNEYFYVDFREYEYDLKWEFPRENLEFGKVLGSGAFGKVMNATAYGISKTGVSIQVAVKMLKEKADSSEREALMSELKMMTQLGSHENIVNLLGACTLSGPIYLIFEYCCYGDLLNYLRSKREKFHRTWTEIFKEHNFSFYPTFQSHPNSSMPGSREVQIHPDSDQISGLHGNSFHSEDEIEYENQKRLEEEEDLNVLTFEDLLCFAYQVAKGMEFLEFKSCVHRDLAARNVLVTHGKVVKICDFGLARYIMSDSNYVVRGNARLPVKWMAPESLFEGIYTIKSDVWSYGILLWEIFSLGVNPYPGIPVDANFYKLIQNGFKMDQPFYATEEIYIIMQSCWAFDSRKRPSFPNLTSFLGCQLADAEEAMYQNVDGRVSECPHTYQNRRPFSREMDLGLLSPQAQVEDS
Experimental: as §1, §2, §3, §4, §5

FLT3 wt = target: T3, FLT3 wt (Homo sapiens, UniProt P36888); assay: Lanthascreen TR-FRET enzymatic assay, FLT3; settings: recombinant FLT3, 1 hour at 25° C., 1% DMSO; read-out: Enzymology (IC50) FLT3 wt
T3 construct: purchased Life Technologies PV3182
T3 sequence (P36888 564-993 limits assumed): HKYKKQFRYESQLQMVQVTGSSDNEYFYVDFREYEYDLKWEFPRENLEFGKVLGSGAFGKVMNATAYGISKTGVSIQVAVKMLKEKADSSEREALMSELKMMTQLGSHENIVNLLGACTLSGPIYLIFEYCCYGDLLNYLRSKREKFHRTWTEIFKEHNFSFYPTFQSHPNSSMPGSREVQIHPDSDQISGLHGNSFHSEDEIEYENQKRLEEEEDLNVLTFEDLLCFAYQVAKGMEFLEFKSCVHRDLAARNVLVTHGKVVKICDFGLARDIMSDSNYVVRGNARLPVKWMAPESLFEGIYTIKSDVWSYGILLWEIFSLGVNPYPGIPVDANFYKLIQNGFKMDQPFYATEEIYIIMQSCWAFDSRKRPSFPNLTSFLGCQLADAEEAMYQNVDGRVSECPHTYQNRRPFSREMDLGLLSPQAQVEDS
Experimental: as §1, §2
FLT3 assays: 15 nM of FLT3, 3 nM of the 236 kinase tracker (Life Technologies #PV5592) and 6 nM of the Europium-tagged anti-His Lanthascreen® antibody are mixed into 15 μL total volume reaction mixture.
as §4, §5

| SMILES | IC50 (FLT3-ITD) [nM] | IC50 (FLT3 D835Y) [nM] | IC50 (FLT3 wt) [nM] |
| --- | --- | --- | --- |
| Cn1c(=O)c2cc(N)ccc2c2nc(Nc3cccc(N)c3)ncc21 [Compound C2, 8-amino-2-((3-aminophenyl)amino)-5-methylpyrimido[5,4-c]isoquinolin-6(5H)-one] | < 25 | < 25 | 25 to 100 |
| CN1CCN(c2ccc(Nc3ncc4c(n3)c3ccc(N)cc3c(=O)n4C)cc2)CC1 [Compound C4, 8-amino-5-methyl-2-((4-(4-methylpiperazin-1-yl)phenyl)amino)pyrimido[5,4-c]isoquinolin-6(5H)-one] | < 25 | < 25 | 25 to 100 |
| CN1CCN(c2cccc(Nc3ncc4c(n3)c3ccc(N)cc3c(=O)n4C)c2)CC1 [Compound C6, 8-amino-5-methyl-2-((3-(4-methylpiperazin-1-yl)phenyl)amino)pyrimido[5,4-c]isoquinolin-6(5H)-one] | < 25 | < 25 | 25 to 100 |
| COc1cc2c(cc1N)c(=O)n(C)c1cnc(Nc3ccc(N4CCN(C)CC4)cc3)nc21 [Compound C10, 8-amino-9-methoxy-5-methyl-2-((4-(4-methylpiperazin-1-yl)phenyl)amino) pyrimido[5,4-c]isoquinolin-6(5H)-one] | < 25 | < 25 | 25 to 100 |
| Cn1c(=O)c2cc(N)ccc2c2nc(Nc3ccc(F)c(N)c3)ncc21 [Compound C22, 8-amino-2-((3-amino-4-fluorophenyl)amino)-5-methylpyrimido[5,4-c]isoquinolin-6(5H)-one] | < 25 | < 25 | 100 to 1000 |
| COc1cc2c(cc1N)c(=O)n(C)c1cnc(Nc3cc(N)cc(F)c3)nc21 [Compound C26, 8-amino-2-((3-amino-5-fluorophenyl)amino)-9-methoxy-5-methylpyrimido [5,4-c]isoquinolin-6(5H)-one] | 25 to 100 | 25 to 100 | 100 to 1000 |
| COc1cc2c(cc1N)c(=O)n(C)c1cnc(Nc3ccc(F)c(N)c3)nc21 [Compound C28, 8-amino-2-((3-amino-4-fluorophenyl)amino)-9-methoxy-5-methylpyrimido [5,4-c]isoquinolin-6(5H)-one] | < 25 | 25 to 100 | 100 to 1000 |
| Cn1c(=O)c2cc(N)ccc2c2nc(Nc3ccc(OCCN4CCCC4)cc3)ncc21 [Compound C34, 8-amino-5-methyl-2-((4-(2-(pyrrolidin-1-yl)ethoxy)phenyl)amino)pyrimido[5,4-c]isoquinolin-6(5H)-one] | < 25 | < 25 | 25 to 100 |
| COc1cc2c(cc1N)c(=O)n(C)c1cnc(Nc3ccc(OCCN4CCCC4)cc3)nc21 [Compound C42, 8-amino-9-methoxy-5-methyl-2-((4-(2-(pyrrolidin-1-yl)ethoxy)phenyl)amino) pyrimido[5,4-c]isoquinolin-6(5H)-one] | < 25 | < 25 | 100 to 1000 |
